Biological target: avidin (Gallus gallus, UniProt P02701)
Test: Competitive avidin-biotin fluorescence quench assay with 263 PRU cyanine polymer
Description: A preferred embodiment for using a cyanine polymer/QTL approach consists of a competitive assay based on selective quenching of a cyanine polymer solution. For example, a 263 polymer repeat unit (PRU) cyanine polymer can be conveniently used in a fluorescence quench competitive bioassay. A competitive assay involving the avidin-biotin receptor-ligand system was conducted as follows: 500 μl of 0.1 μM of this polymer was added to the filtrate (lower) chamber of each of 3 separate Microcon YM-30 centrifugal filter vials. In each of these devices the filtrate chamber is separated from the retentate (upper) chamber by a 30 kilodalton (KD) nominal molecular weight cutoff (NMWCO) cellulose membrane. This membrane is impermeable to the 66 KD protein avidin but allows the biotin-anthraquinone conjugate to pass. […] Since each avidin has four biotin binding sites, this sub-stoichiometric ratio ensures full binding of all QTL conjugate to avidin. The three retentate chambers were charged with a.) 0.5 μM D-Biotin, b. and c.) 0.8 μM AQS-biotin conjugate complexed with 1.0 μM avidin. The 3 tubes were then each sealed and incubated for 10 minutes, after which time 0.5 μM D-Biotin was added to vial c. […] The fluorescence emission of all three filtrates was then measured at 20.0° C.+/−0.1° C. on a SPEX FluoroMax-3. […]

Chain of avidin (P02701 25-152, species assumed): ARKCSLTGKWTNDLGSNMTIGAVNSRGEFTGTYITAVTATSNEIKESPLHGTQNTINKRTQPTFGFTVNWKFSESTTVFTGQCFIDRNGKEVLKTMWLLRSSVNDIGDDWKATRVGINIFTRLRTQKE

O=C(O)CCCC[C@@H]1SC[C@@H]2NC(=O)N[C@@H]21 [biotin, D-Biotin]
quenching of cyanine polymer after adding competitor to QTL-avidin solution (0.8 μM AQS-biotin conjugate with 1.0 μM avidin): quenching occurred
quenching of cyanine polymer in filtrate, sample alone (sample alone in retentate chamber, 30 KD membrane, 263 PRU polymer 0.1 μM): no quenching

From patent publication US6743640B2, “Fluorescent polymer-QTL approach to biosensing” (priority 2000, dated 2004)
